# Laboratory results: patent publication US20220218710A1, “Inhibition of Neddylation for Treatment of MS” (The Regents of the University of California, priority 2019, published 2022)
# System: experimental autoimmune encephalomyelitis (EAE)
# Format: in vivo, C57BL/6 mice
# Protocol: FIGS. 3A, 3B, and 3C. FIGS. 3A, 3B, and 3C depicts pevonedistat treatment effects in an MS animal model. FIG. 3A depicts the trial design: C57BL/6 mice were treated daily starting on Day−1 with either Pevonedistat (20 mg/kg) or placebo (n=10/group). The result shown here is one representative of two independent experiments. EAE was induced through active immunization with myelin oligodendrocyte (MOG) peptide 35-55 following standard protocols (triangles). Weights were taken on D−1, D7, and D14 (dots). Animals were scored daily. Mice were sacrificed and brain and spinal cords of were harbored on Day 16 at peak disease (n=4/group) (triangle). FIG. 3B depicts EAE severity: Diseases was assessed blinded using a […] scale from 0 to 5 (0=no symptoms, 5=death). Data shown here are from one representative of two experiments. FIG. 3C depicts mice weights over the course of the experiment. ****p-value<0.001, 2-way ANOVA test.
# EAE induction and neddylation inhibition in mice. Four weeks old female C57BL/6 mice were used. All mice were housed in closed caging systems and provided with standard irradiated chow diet, acidified water ad libitum and housed under a 12-hour light cycle. Pevonedistat (MLN4924) (Chemietek Inc., Indianapolis, Ind.) was dissolved in DMSO and further diluted in 30% of PEG300 and 5% of TWEEN in ddH2O at a concentration of 40 mg/mL and stored at −20° C. 7-8 week old mice were treated daily with 20 mg/kg Pevonedistat or vehicle (same concentration of buffer without Pevonedistat) starting at day −1. Mice were immunized subcutaneously on day 0 with 100 μg MOG35-55 emulsified in incomplete Freund's adjuvant supplemented with Mycobacterium tuberculosis followed by two intraperitoneal injections on Day 0 and Day 2 with 300 ng pertussis each. […] Mice were scored daily on a […] scale in a blinded fashion as follows: 0, no deficit; 1, limp tail only; 2, limp tail and hind limb weakness; 3, complete hind limb paralysis; 4, complete hind limb paralysis and partial/complete forelimb paralysis; 5, death.
# Inhibition of neddylation reduces EAE. […] Pevonedistat (MLN4924), which is a small molecule and first-in-class inhibitor of NAE was next used in experimental autoimmune encephalomyelitis (EAE), an established MS mouse model driven by a strong CD4+ T cell response (FIG. 3A). Although Pevonedistat was originally tested as a cancer therapy, recent studies proposed this agent as a potential therapeutic target for immune-related diseases due to the important role of neddylation in immune cell functions.
# [1] = 20 mg/kg daily, EAE mice at peak disease
compound,measurement,setting,value
"NS(=O)(=O)OC[C@@H]1C[C@@H](n2ccc3c(N[C@H]4CCc5ccccc54)ncnc32)C[C@@H]1O [Pevonedistat, pevonedistat]","EAE severity (10-point scale from 0 to 5, scored daily, blinded)","20 mg/kg daily from day -1, compared to placebo-treated group, FIG. 3B",significantly reduced EAE severity
same,density of CD3+ T cells in spinal cord,[1],decreased densities
same,density of Iba1+ myeloid cells in spinal cord,[1],decreased densities
same,spinal cord inflammation (inflammatory infiltrates),"20 mg/kg daily, EAE spinal cords at peak disease, vs placebo",dramatic reduction in spinal cord inflammation
same,"demyelination, histological assessment of CNS tissue","20 mg/kg daily, at peak disease (Day 16)",significant reduction of demyelination
same,mice weights during the disease course,"20 mg/kg daily, placebo group had significant weight loss at peak of disease, FIG. 3C",steady weight
